For 4 compounds, Activity results are on record in ChEMBL document CHEMBL1157596, “Colony stimulating factor-1 receptor as a target for small molecule inhibitors” (Bioorg Med Chem, 2010).

Holding throughout (type): cell-based
Parameters in all cases: scale not given: the % may be the effect or the level left

For assay [1], the target named is Macrophage colony-stimulating factor 1 receptor (Homo sapiens) (UniProt P07333). Nature of the assay: Inhibition of CSF1-stimulated human FMS autophosphorylation expressed in growth factor dependent mouse FDC-P1 cells assessed as phosphorylated receptor level at 1 nM relative to control by Western blot.
Sequence of Macrophage colony-stimulating factor 1 receptor (Homo sapiens) (P07333 whole entry): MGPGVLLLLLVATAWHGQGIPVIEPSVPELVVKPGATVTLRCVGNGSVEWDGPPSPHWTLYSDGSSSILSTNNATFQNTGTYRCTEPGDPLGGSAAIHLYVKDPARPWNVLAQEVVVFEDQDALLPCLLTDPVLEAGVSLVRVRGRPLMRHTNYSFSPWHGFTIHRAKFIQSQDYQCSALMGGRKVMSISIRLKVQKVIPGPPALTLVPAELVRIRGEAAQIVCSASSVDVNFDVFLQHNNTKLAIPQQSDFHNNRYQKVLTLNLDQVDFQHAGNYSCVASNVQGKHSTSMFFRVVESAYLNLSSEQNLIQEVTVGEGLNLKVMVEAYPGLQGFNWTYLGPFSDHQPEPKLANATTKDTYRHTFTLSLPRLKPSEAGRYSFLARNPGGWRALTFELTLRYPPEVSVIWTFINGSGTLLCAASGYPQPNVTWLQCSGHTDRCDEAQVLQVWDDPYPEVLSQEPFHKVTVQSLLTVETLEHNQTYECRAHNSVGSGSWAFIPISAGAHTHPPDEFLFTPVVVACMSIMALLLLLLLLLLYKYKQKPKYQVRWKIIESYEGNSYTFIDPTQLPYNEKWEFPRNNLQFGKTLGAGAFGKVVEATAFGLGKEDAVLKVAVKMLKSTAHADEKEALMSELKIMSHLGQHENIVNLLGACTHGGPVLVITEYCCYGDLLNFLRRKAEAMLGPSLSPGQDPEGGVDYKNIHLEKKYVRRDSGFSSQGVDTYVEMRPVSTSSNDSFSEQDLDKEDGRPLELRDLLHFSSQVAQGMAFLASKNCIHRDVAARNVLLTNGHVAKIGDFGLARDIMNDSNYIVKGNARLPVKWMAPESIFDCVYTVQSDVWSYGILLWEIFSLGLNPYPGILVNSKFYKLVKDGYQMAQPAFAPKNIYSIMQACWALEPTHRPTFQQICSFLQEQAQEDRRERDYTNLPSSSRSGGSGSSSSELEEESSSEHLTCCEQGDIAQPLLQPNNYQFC
For assay [2] the target is unchanged. Description: Inhibition of CSF1-stimulated human FMS autophosphorylation expressed in growth factor dependent mouse FDC-P1 cells assessed as phosphorylated receptor level at 500 nM relative to control by Western blot. (A western blot detects proteins with antibodies after separation by electrophoresis.)
Assay [3] has the same target. Description: Inhibition of CSF1-stimulated human FMS autophosphorylation expressed in growth factor dependent mouse FDC-P1 cells assessed as phosphorylated receptor level at 50 nM relative to control by Western blot.
Assay [4] has the same target. Nature of the assay: Inhibition of CSF1-stimulated human FMS autophosphorylation expressed in growth factor dependent mouse FDC-P1 cells assessed as phosphorylated receptor level at 5 nM relative to control by Western blot.
For assay [5] the target is unchanged. Description: Inhibition of CSF1-stimulated human FMS autophosphorylation expressed in growth factor dependent mouse FDC-P1 cells assessed as phosphorylated receptor level at 31 nM relative to control by Western blot.
Assay [6] shares this target. Description: Inhibition of CSF1-stimulated human FMS autophosphorylation expressed in growth factor dependent mouse FDC-P1 cells assessed as phosphorylated receptor level at 1.1 uM relative to control by Western blot.
The target is the same in assay [7]. Nature of the assay: Inhibition of CSF1-stimulated human FMS autophosphorylation expressed in growth factor dependent mouse FDC-P1 cells assessed as phosphorylated receptor level at 3.3 uM relative to control by Western blot.
The target is the same in assay [8]. Nature of the assay: Inhibition of CSF1-stimulated human FMS autophosphorylation expressed in growth factor dependent mouse FDC-P1 cells assessed as phosphorylated receptor level at 0.33 uM relative to control by Western blot.
Assay [9] shares this target. Nature of the assay: Inhibition of CSF1-stimulated human FMS autophosphorylation expressed in growth factor dependent mouse FDC-P1 cells assessed as phosphorylated receptor level at 0.11 uM relative to control by Western blot.
The target is the same in assay [10]. Nature of the assay: Inhibition of CSF1-stimulated human FMS autophosphorylation expressed in growth factor dependent mouse FDC-P1 cells assessed as phosphorylated receptor level at 10 uM relative to control by Western blot.

`C[C@]12O[C@H](C[C@]1(O)CO)n1c3ccccc3c3c4c(c5c6ccccc6n2c5c31)CNC4=O`: the Activity in assay [1] is 85%.
In the case of `CO[C@@H]1[C@H](N(C)C(=O)c2ccccc2)C[C@H]2O[C@]1(C)n1c3ccccc3c3c4c(c5c6ccccc6n2c5c31)C(=O)NC4`, the values for the Activity in assay [2], in assay [3] and in assay [4] were 3%, 21% and 110%, respectively.
Turning to `CCN(CC)CCNC(=O)c1c(C)[nH]c(/C=C2\C(=O)Nc3ccc(F)cc32)c1C`, the Activity worked out at 90% in assay [1], 2% in assay [2] and 37% in assay [5].
Turning to `CN(C)S(=O)(=O)c1ccc2c(c1)/C(=C/c1cc3c([nH]1)CCCC3)C(=O)N2`, the Activity came out at 104% in [6]; 97% in assay [7]; 109% in assay [8]; 104% in assay [9]; 106% in assay [10].
